Test results as given in US8629116B2, “Method for inducing a TRIF-bias” (priority 2008, dated 2014).
Where two headings read alike, the source gives them in different places.

Assays:
[1] = tested on: human monocyte-derived dendritic cells; assay: IL-12p70 and IL-23 induction in human monocyte-derived dendritic cells; format: cell-based
Protocol: (§1) Peripheral blood mononuclear cells (PBMCs) are isolated from the blood of healthy donors via a Ficoll Hypaque 1.077 gradient and treated with agonists or are used to isolate adherent monocytes in monocyte media (RPMI 1640 (ATCC), 10% human AB serum (Lonza/BioWhittaker), 100 U/mL penicillin/100 ug/mL streptomycin (Sigma), 50 uM 2-mercaptoethanol (Sigma) as described (Stover et al. 4440-49; Kawai et al. 5887-94; Gervassi et al. 7231-39). Monocyte-derived macrophages are produced by incubating adherent monocytes for 5 days in monocyte media with 50 ng/mL rhM-CSF (R&D Systems) with media changes at day 3 and day 5 before agonist treatment. Monocyte-derived dendritic cells (DC) are produced by incubating adherent monocytes for 7 days in monocyte media with 10 ng/mL rhGM-CSF and 10 ng/mL rhIL-4 (R&D Systems) with media changes on day 3 and day 6.
Induction of inflammatory cytokines and maturation of dendritic cells (DC) contribute to the promotion of a robust immune response during the administration of an adjuvanted vaccine. Therefore, the capacity of CRX527 and CRX-547 to induce IL-12p70 in human DCs is compared. The induction of IL-12p70 promotes the development of the Th1 helper T cell lineage and favors development of a cell-mediated immune response (Goriely, Neurath, and Goldman 81-86; Gutcher and Becher 1119-27). […]

TLR4 receptor complex = target: T1, TLR4 receptor complex (Homo sapiens, UniProt O00206+Q9Y6Y9); assay: Inhibition of CRX-527- or LPS-induced cytokines by CRX-547 in primary human adherent monocytes; format: cell-based; conditions: for IC50: added simultaneously
T1 construct: endogenous in cells; host or cells: primary human adherent monocytes isolated from PBMCs of healthy donors
T1 sequence (O00206 24-839): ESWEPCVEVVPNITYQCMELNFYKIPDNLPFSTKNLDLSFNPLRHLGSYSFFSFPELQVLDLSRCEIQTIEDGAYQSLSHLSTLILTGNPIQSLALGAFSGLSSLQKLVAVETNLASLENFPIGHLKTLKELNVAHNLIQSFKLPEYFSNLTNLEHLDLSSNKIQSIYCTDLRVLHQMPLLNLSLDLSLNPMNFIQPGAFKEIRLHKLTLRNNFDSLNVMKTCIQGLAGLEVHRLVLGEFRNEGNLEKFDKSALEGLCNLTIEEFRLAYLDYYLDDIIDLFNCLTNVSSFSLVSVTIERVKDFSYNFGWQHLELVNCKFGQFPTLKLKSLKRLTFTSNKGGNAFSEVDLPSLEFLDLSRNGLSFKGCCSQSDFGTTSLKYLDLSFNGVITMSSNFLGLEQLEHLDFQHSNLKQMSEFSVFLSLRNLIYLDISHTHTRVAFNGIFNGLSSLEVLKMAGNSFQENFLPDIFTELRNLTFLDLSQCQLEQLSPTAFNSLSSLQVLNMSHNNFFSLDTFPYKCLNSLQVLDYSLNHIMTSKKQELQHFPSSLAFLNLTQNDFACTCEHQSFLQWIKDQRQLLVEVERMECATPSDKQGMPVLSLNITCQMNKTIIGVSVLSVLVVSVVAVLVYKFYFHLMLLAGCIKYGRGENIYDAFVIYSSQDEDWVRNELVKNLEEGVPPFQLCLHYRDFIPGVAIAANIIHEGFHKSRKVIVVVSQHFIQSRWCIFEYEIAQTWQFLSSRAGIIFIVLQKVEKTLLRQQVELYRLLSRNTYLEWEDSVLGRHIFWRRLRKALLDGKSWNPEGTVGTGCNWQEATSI
T1 sequence (Q9Y6Y9 19-160): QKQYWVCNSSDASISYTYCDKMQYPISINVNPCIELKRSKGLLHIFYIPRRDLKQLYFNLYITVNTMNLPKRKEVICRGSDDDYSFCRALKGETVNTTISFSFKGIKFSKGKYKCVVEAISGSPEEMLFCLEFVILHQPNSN
Protocol: as §1
CRX-527 signals through the TLR4/MD2 receptor complex leading to activation of transcription factors that lead to induction of cytokines and chemokines. […] (FIG. 10).
To that end, human primary monocytes are treated with a dose range of CRX-527 in the presence of increasing concentrations of CRX-547.
The resulting dose-response curves are fit with a 4 parameter logistic equation.
Plotting the log EC50 shift (DR-1) for each concentration of CRX-547 versus the log of the concentration of CRX-547 (Schild regression) allows us to compare the calculated affinity (Kbapp) with the EC50 for CRX-547 calculated from the CRX-547 and CRX-527 dose-response curve. […] (FIG. 10B.)

CCCCCCCCCCCC(CC(=O)NC(COC1OC(CO)C(OP(=O)(O)O)C(OC(=O)CC(CCCCCCCCCCC)OC(=O)CCCCCCCCC)C1NC(=O)CC(CCCCCCCCCCC)OC(=O)CCCCCCCCC)C(=O)O)OC(=O)CCCCCCCCC.CCN(CC)CC (centres unmarked) [CRX-547]
IL-23 expression ([1]; dendritic cells, compared with CRX-527): reduced virtually to base-line levels
IL-12p70 response ([1]; human monocyte-derived DC, compared to CRX-527 and LPS): significantly reduced
effect of CRX-547 on MCP-1 (TRIF-dependent) induction by fixed CRX-527 or LPS (TLR4 receptor complex; at higher concentrations of CRX-547): increased additively
IC50 (TLR4 receptor complex; fixed CRX-527 100 nM, read-out: IC50 for inhibition of TNFα induction by CRX-527): 48 ± 30 nM
IC50 (TLR4 receptor complex; fixed LPS 100 nM, read-out: IC50 for inhibition of TNFα induction by LPS): 18 ± 12 nM
effect of CRX-547 on TNFα induction by fixed concentration of CRX-527 or LPS (TLR4 receptor complex; increasing CRX-547 added prior to CRX-527 or LPS): inhibited
agonist character for induction of MyD88-dependent cytokines/chemokines (TLR4 receptor complex; relative to CRX-527 and LPS, monocytic cells): partial agonist
Kd (TLR4 receptor complex; shift of CRX-527-induced TNFα dose-response curves, read-out: affinity estimate (Kbapp) by Schild regression): 0.33 nM
